PubChem BioAssay AID1963446 (Molecular Pharmacology Branch, DTP, NCI, 2024)
Where “and” joins values, the source holds several entries; their conditions need not be identical. Identical values can stand only once.

Tested on: 993429-296-R-J1-PDC complex spheroid growth, percent test/control
Experiment: Anticancer human tumor 993429-296-R-J1-PDC patient-derived uterine sarcoma cell line growth inhibition [Asc]
Settings: for viability, T/C: stronger effect = lower value
Outline: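 Tumor cells were grown as complex spheroids with human endothelial cells (HUVEC) and human mesenchymal stem cells as stroma. Agents were tested alone and in combination, in half-log steps down from the clinical Cmax, or from 10 microM where Cmax was unknown.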

[1] = curve of first compound, second compound 0.03 µM
[2] = curve of first compound, second compound 0.0949 µM
[3] = curve of first compound, second compound 0.3 µM
[4] = curve of first compound, second compound 0.949 µM
[5] = curve of first compound, second compound 3 µM
[6] = second compound 0.03 µM, first compound 0.0316 µM
[7] = second compound 0.03 µM, first compound 0.1 µM
[8] = second compound 0.0949 µM, first compound 0.0316 µM
[9] = second compound 0.0949 µM, first compound 0.1 µM
[10] = second compound 0.3 µM, first compound 0.0316 µM
[11] = second compound 0.3 µM, first compound 0.1 µM
[12] = second compound 0.949 µM, first compound 0.0316 µM
[13] = second compound 0.949 µM, first compound 0.1 µM
[14] = second compound 3 µM, first compound 0.0316 µM
[15] = second compound 3 µM, first compound 0.1 µM
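Note: spheroids exposed to compounds for seven days.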

In the case of `O=C(c1cc(Cc2n[nH]c(=O)c3ccccc23)ccc1F)N1CCN(C(=O)C2CC2)CC1` + CCN1C(C(=O)NC23CCC(C(=O)O)(CC2)CC3)C(c2cccc(Cl)c2F)C2(C(=O)Nc3cc(Cl)ccc32)C12CCCCC2, the IC50 [1] is reported as 6360 nM, the IC50 [2] is reported as 4840 nM and the IC50 [3] is reported as 6870 nM. For the same molecule, the IC50 [4] was 4900 nM, the IC50 [5] was 3040 nM and the viability, T/C [6] was 87.8%. It also gave a viability, T/C [7] of 104%, a viability, T/C (second compound 0.03 µM, first compound 0.316 µM) of 98% and a viability, T/C (second compound 0.03 µM, first compound 1 µM) of 100%. The viability, T/C (second compound 0.03 µM, first compound 3.16 µM) was 66.3%, the viability, T/C (second compound 0.03 µM, first compound 10 µM) was 39.5% and the viability, T/C [8] was 109%. For the same molecule, the viability, T/C [9] was 106%, the viability, T/C (second compound 0.0949 µM, first compound 0.316 µM) was 87.9% and the viability, T/C (second compound 0.0949 µM, first compound 1 µM) was 113%. For the same molecule, the viability, T/C (second compound 0.0949 µM, first compound 3.16 µM) was 61.9%, the viability, T/C (second compound 0.0949 µM, first compound 10 µM) was 29.6% and the viability, T/C [10] was 92%. It also gave a viability, T/C [11] of 100%, a viability, T/C (second compound 0.3 µM, first compound 0.316 µM) of 99.7% and a viability, T/C (second compound 0.3 µM, first compound 1 µM) of 78.6%. The viability, T/C (second compound 0.3 µM, first compound 3.16 µM) was 76.1%, the viability, T/C (second compound 0.3 µM, first compound 10 µM) was 38.5% and the viability, T/C [12] was 100%. The viability, T/C [13] was 113%, the viability, T/C (second compound 0.949 µM, first compound 0.316 µM) was 88.8% and the viability, T/C (second compound 0.949 µM, first compound 1 µM) was 81%. For the same molecule, the viability, T/C (second compound 0.949 µM, first compound 3.16 µM) was 62.2%, the viability, T/C (second compound 0.949 µM, first compound 10 µM) was 32.1% and the viability, T/C [14] was 96.6%. For the same molecule, the viability, T/C [15] was 90.3%, the viability, T/C (second compound 3 µM, first compound 0.316 µM) was 78.4% and the viability, T/C (second compound 3 µM, first compound 1 µM) was 83.1%. The viability, T/C (second compound 3 µM, first compound 3.16 µM) was 48.3% and the viability, T/C (second compound 3 µM, first compound 10 µM) was 33.1%.
Work on `Cc1nc(N2CCC3(CC2)COC(C)C3N)c(CO)nc1Sc1ccnc(N)c1Cl` (configuration not stated) + Cc1c(S(C)(=O)=O)c(-c2cc(F)cc(N3CCN(c4ccc(NS(=O)(=O)c5ccc(NC(CCN6CCC(C(=O)OCCCP(=O)(O)O)CC6)CSc6ccccc6)c(S(=O)(=O)C(F)(F)F)c5)cc4)CC3)c2)c(-c2ccc(Cl)cc2)n1C(C)C yielded an IC50 (curve of first compound, second compound 0.1 µM) of 80.2 nM, an IC50 (curve of first compound, second compound 0.316 µM) of 30.5 nM and an IC50 (curve of first compound, second compound 1 µM) of 14.6 nM. The IC50 (curve of first compound, second compound 3.16 µM) was < 9.49 nM, the IC50 (curve of first compound, second compound 10 µM) was 98.7 nM and the viability, T/C (second compound 0.1 µM, first compound 0.00949 µM) was 71.1%. For the same molecule, the viability, T/C (second compound 0.1 µM, first compound 0.03 µM) was 64.3%, the viability, T/C (second compound 0.1 µM, first compound 0.0949 µM) was 47.2% and the viability, T/C (second compound 0.1 µM, first compound 0.3 µM) was 29.7%. For the same molecule, the viability, T/C (second compound 0.1 µM, first compound 0.949 µM) was 18.8%, the viability, T/C (second compound 0.1 µM, first compound 3 µM) was 17.1% and the viability, T/C (second compound 0.316 µM, first compound 0.00949 µM) was 60.7%. For the same molecule, the viability, T/C (second compound 0.316 µM, first compound 0.03 µM) was 49.3%, the viability, T/C (second compound 0.316 µM, first compound 0.0949 µM) was 35.7% and the viability, T/C (second compound 0.316 µM, first compound 0.3 µM) was 21.9%. It also gave a viability, T/C (second compound 0.316 µM, first compound 0.949 µM) of 14.1%, a viability, T/C (second compound 0.316 µM, first compound 3 µM) of 14.7% and a viability, T/C (second compound 1 µM, first compound 0.00949 µM) of 52.2%. For the same molecule, the viability, T/C (second compound 1 µM, first compound 0.03 µM) was 46.3%, the viability, T/C (second compound 1 µM, first compound 0.0949 µM) was 27% and the viability, T/C (second compound 1 µM, first compound 0.3 µM) was 14.5%. For the same molecule, the viability, T/C (second compound 1 µM, first compound 0.949 µM) was 14.4%, the viability, T/C (second compound 1 µM, first compound 3 µM) was 10.1% and the viability, T/C (second compound 3.16 µM, first compound 0.00949 µM) was 34.6%. For the same molecule, the viability, T/C (second compound 3.16 µM, first compound 0.03 µM) was 29.8%, the viability, T/C (second compound 3.16 µM, first compound 0.0949 µM) was 33.6% and the viability, T/C (second compound 3.16 µM, first compound 0.3 µM) was 13.2%. For the same molecule, the viability, T/C (second compound 3.16 µM, first compound 0.949 µM) was 10.8%, the viability, T/C (second compound 3.16 µM, first compound 3 µM) was 8.71% and the viability, T/C (second compound 10 µM, first compound 0.00949 µM) was 76.7%. For the same molecule, the viability, T/C (second compound 10 µM, first compound 0.03 µM) was 67.5%, the viability, T/C (second compound 10 µM, first compound 0.0949 µM) was 51.1% and the viability, T/C (second compound 10 µM, first compound 0.3 µM) was 29.9%. For the same molecule, the viability, T/C (second compound 10 µM, first compound 0.949 µM) was 14.4% and the viability, T/C (second compound 10 µM, first compound 3 µM) was 13.8%.
`C=CC(=O)N1CCN(c2nc(=O)n(-c3c(C)ccnc3C(C)C)c3nc(-c4c(O)cccc4F)c(F)cc23)C(C)C1` (configuration not stated) was tested, and the viability, T/C (compound 0.0316 µM) was 90.9% and 96.8% and 96.9%, the viability, T/C (compound 0.1 µM) was 104% and 92.1% and 93.1% and the viability, T/C (compound 0.316 µM) was 104% and 92.4% and 105%. For the same molecule, the viability, T/C (compound 1 µM) was 102% and 106% and 110%, the viability, T/C (compound 3.16 µM) was 64.9% and 109% and 115% and the viability, T/C (compound 10 µM) was 72.8% and 77% and 94%. For the same molecule, the IC50 (curve of compound) was > 10000 nM.
In the case of `NC1CCC(NC2CC2c2ccccc2)CC1` (configuration not stated) + CCN1C(C(=O)NC23CCC(C(=O)O)(CC2)CC3)C(c2cccc(Cl)c2F)C2(C(=O)Nc3cc(Cl)ccc32)C12CCCCC2, the IC50 [1] is reported as > 100 nM, the IC50 [2] is reported as > 100 nM and the IC50 [3] is reported as > 100 nM. For the same molecule, the IC50 [4] was > 100 nM, the IC50 [5] was > 100 nM and the viability, T/C (second compound 0.03 µM, first compound 0.000316 µM) was 76.4%. For the same molecule, the viability, T/C (second compound 0.03 µM, first compound 0.001 µM) was 75.4%, the viability, T/C (second compound 0.03 µM, first compound 0.00316 µM) was 80.2% and the viability, T/C (second compound 0.03 µM, first compound 0.01 µM) was 77.8%. It also gave a viability, T/C [6] of 81.4%, a viability, T/C [7] of 91.8% and a viability, T/C (second compound 0.0949 µM, first compound 0.000316 µM) of 91.1%. It also gave a viability, T/C (second compound 0.0949 µM, first compound 0.001 µM) of 77.5%, a viability, T/C (second compound 0.0949 µM, first compound 0.00316 µM) of 74.7% and a viability, T/C (second compound 0.0949 µM, first compound 0.01 µM) of 66.8%. It also gave a viability, T/C [8] of 93%, a viability, T/C [9] of 81.5% and a viability, T/C (second compound 0.3 µM, first compound 0.000316 µM) of 98.2%. The viability, T/C (second compound 0.3 µM, first compound 0.001 µM) was 74.7%, the viability, T/C (second compound 0.3 µM, first compound 0.00316 µM) was 69% and the viability, T/C (second compound 0.3 µM, first compound 0.01 µM) was 80.2%. It also gave a viability, T/C [10] of 69.3%, a viability, T/C [11] of 83.8% and a viability, T/C (second compound 0.949 µM, first compound 0.000316 µM) of 72%. It also gave a viability, T/C (second compound 0.949 µM, first compound 0.001 µM) of 76.9%, a viability, T/C (second compound 0.949 µM, first compound 0.00316 µM) of 83.1% and a viability, T/C (second compound 0.949 µM, first compound 0.01 µM) of 83.2%. For the same molecule, the viability, T/C [12] was 76.6%, the viability, T/C [13] was 88.9% and the viability, T/C (second compound 3 µM, first compound 0.000316 µM) was 75.2%. It also gave a viability, T/C (second compound 3 µM, first compound 0.001 µM) of 85.6%, a viability, T/C (second compound 3 µM, first compound 0.00316 µM) of 79.7% and a viability, T/C (second compound 3 µM, first compound 0.01 µM) of 74.1%. For the same molecule, the viability, T/C [14] was 70.3% and the viability, T/C [15] was 71%.
